Measurements from paper PMC11539218 (Antimicrobial Agents and Chemotherapy, 2024).

Assays:
[1] = system: L. (L.) infantum promastigotes; test: Short-time incubation IC50 assay in promastigotes (MTT); assay type: cell-based, Leishmania (L.) infantum; conditions: Leishmania infantum, promastigotes 2 × 10^6/well, 4 h of treatment, read-out: IC50 (50% inhibitory concentration), short-time incubation
Method: All experiments were performed with L. (L.) infantum promastigotes in the late-grown phase using a Hanks-Balanced Salt Solution medium supplemented with D-glucose (10 mM), exceptions were described. To establish the ideal time and concentration to investigate the mechanism of action (MoA), a new IC50 assay was performed in promastigotes in short-time incubation. Parasites (2 × 10^6/well) were treated with compound 1 serially diluted (1.6 to 300 µM) for 1, 2, 3, and 4 h, at 24°C. Parasite viability was determined using the MTT colorimetric method ([16]). Untreated cells were employed as a negative control.

[2] = system: L. (L.) infantum promastigotes; test: Acidocalcisomes alkalinization (acridine orange); assay type: cell-based, Leishmania (L.) infantum; conditions: compound 1 169.2 µM, nigericin 4 µM; after 20 min; vs untreated
Method: Promastigotes (2 × 10^6/well) were pretreated with acridine orange (4 µM) in PBS, for 5 min at 24°C. The parasites were treated with compound 1 (169.2 µM). Fluorescence was monitored every 20 min up to 4 h in a spectrofluorometer, with excitation and emission wavelengths of 485 and 535 nm, respectively ([22]). Nigericin (4 µM) was employed as positive control and untreated parasites as negative control ([23]).

[3] = system: L. (L.) infantum promastigotes; test: DNA content / integrity (agarose gel electrophoresis); assay type: cell-based, Leishmania (L.) infantum; conditions: compound 1 169.2 µM, H2O2 10 mM; 24 h; 2% agarose gel
Method: Promastigotes (1 × 10^7/well) were treated with compound 1 (169.2 μM) in M199 medium supplemented with 10% FBS and 0.25% hemin, pH 7.2, for 24 h at 24°C. Then, the genetic material was extracted using the QIAamp DNA Mini Kit, according to the manufacturer’s instructions. Total DNA quantification was performed in a NanoDrop ND-1000 spectrophotometer (260/280 nm). The purified genetic material (300 ng) was analyzed by electrophoresis for 1 h at […] in a 2% agarose gel with ethidium bromide (0.5 µg/mL). Visualization was performed under UV light in a MiniBIS Pro transilluminator (DNR Bio Imaging System) ([21]). H2O2 (10 mM) was employed as positive control and untreated parasites as negative control ([26]).

[4] = system: Peritoneal macrophages infected with L. (L.) infantum; test: Cytokines in infected macrophages (ELISA); assay type: cell-based, BALB/c mice; conditions: 48 and 72 h
Method: L. (L.) infantum (MHOM/BR/1972/LD) promastigotes were maintained in M199 medium supplemented with 10% FBS and 0.25% hemin, pH 7.2 at 24°C. Amastigotes were isolated from golden hamsters (M. auratus) by differential centrifugation of infected spleens and the parasite’s number was determined according to Stauber ([14]). Peritoneal macrophages were obtained from the peritoneal cavity of BALB/c mice and maintained in RPMI-1640 medium supplemented with 10% FBS, pH 7.2 at 37°C.
Peritoneal macrophages (1 × 10^6/well) were infected with L. (L.) infantum […] (10:1 amastigotes/macrophage) for 24 h, at 37°C with 5% CO2. Subsequently, compound 1 (10 and 60 µM) was added and the incubation followed the same conditions described above. Cell supernatants were collected after 48 and 72 h and the cytokines (IL-4, IL-10, IL-12, and INF-γ) were measured using the BD OptEIA Mouse ELISA set kits, according to the manufacturer’s instructions. Concanavalin A (5 µg/mL) was employed as positive control and untreated cells as negative control.

[5] = In vivo pharmacokinetic study, intraperitoneal; design: species or system Wistar rats; conditions: 5 mg/kg intraperitoneal; for half-life: 5 mg/kg
Method: The detection and quantification of compound 1 in the blood matrices were performed after sample processing, using a liquid-liquid extraction methodology. First, 100 µL of plasma was enriched with 10 µL of PI (0.8 µg/mL). Subsequently, 500 µL of hexane was added and the mixture was vortexed for 1 min and centrifuged at 22,082 × g for 5 min. The organic phase was collected in glass tubes and the aqueous phase was subjected to the liquid-liquid extraction procedure again. In the end, the combined organic samples were completely evaporated at 60°C under nitrogen flow and reconstituted in 100 µL of 40:60 ACN:H2O + 0.1% orthophosphoric acid (pH 2.08). Finally, the extracts were centrifuged at 22,082 × g for 2 min and injected into the chromatographic system. Chromatographic analyses by HPLC were performed using a C18 column (Purospher Star LiChroCART, 55 × 4 mm, 3 µm) with gradient elution (Table 1).
Compound 1 (5 mg/kg) was administered (10 mL/kg in saline-sodium-chloride-0.9%) by intraperitoneal route, to six Wistar rats. Blood samples were collected from the caudal vein at 30 min, 1, 2, 3, 5, 6, 8, 12, and 24 h post-dosing. Plasma samples were prepared as described in the previous section and analyzed by HPLC. Concentrations below the LLOQ were considered as zero. Pharmacokinetic profile was obtained using the WinNonlin 6.4 software, determining different parameters, including half-life time (T½); maximum time (Tmax); maximum plasma concentration (Cmax); area under the curve from time zero to the last measurable concentration time (AUC0-t); area under the curve from zero to infinity (AUC0-inf); percentage of area under the curve extrapolated from the last measurable concentration time to infinity (AUCextrap); and meantime of residence (MRT).

[6] = system: amastigotes of L. (L.) infantum; conditions: cited from earlier work
[7] = Wistar, rat, plasma, ip, female rats
[8] = Wistar, rat, plasma, ip, male rats
[9] = both sexes, rat, plasma, ip, single dose, Wistar rats, males + females (mean ± SD)

With `C=CCc1cc(OC)c(OCc2ccc(OC)cc2)c(Oc2ccc(CN3CCOCC3)cc2OC)c1` [compound 1, 4-(4-(5-allyl-3-methoxy-2-((4-methoxybenzyl)oxy)phenoxy)-3-methoxybenzyl)morpholine] the IC50 [1] was 169 µM, the “acridine orange fluorescence levels (acidocalcisomes)” value [2] was “significantly higher” and the “integrity of the genetic content (DNA)” value [3] was “no alterations”. The IL-10 levels ([4]; 10 and 60 µM, vs untreated control) was “reduction”, the IL-4 levels ([4]; only at 60 µM) was “significantly reduced levels” and the IL-12 levels ([4]; only at 60 µM) was “significantly reduced levels”. The INF-γ levels ([4]; only at 60 µM) was “significantly reduced levels”, the T1/2 ([5]; single dose, Wistar rats, males + females (mean ± SD)) was 21.08 ± 17.72 h and the AUC(0-t) [5, 7] was 980 ng·h/mL. For the same compound, the Cmax [5, 7] was 200 ng/mL, the MRT [5, 7] was 12.8 h and the Tmax [5, 7] was 0.5 h. It also gave an AUC(0-t) [5, 8] of 650 ng·h/mL, a Cmax [5, 8] of 100 ng/mL and an MRT [5, 8] of 41.1 h. The Tmax [5, 8] was 1.5 h, the half-life ([5]; both sexes, Wistar, rat, plasma, ip, single dose, Wistar rats, males + females (mean ± SD)) was 1260 min and the AUC(0-inf) [5, 9] was 1270 ± 340 ng·h/mL. It also gave an AUC(0-t) [5, 9] of 810 ± 300 ng·h/mL, a Cmax [5, 9] of 150 ± 80 ng/mL and an MRT [5, 9] of 26.9 ± 23.2 h. It also gave a Tmax [5, 9] of 1 ± 1.22 h, a half-life ([5]; female, Wistar, rat, plasma, ip, female rats) of 643 min and a half-life ([5]; male, Wistar, rat, plasma, ip, male rats) of 1890 min. The IC50 ([6]; intracellular amastigotes, 24 h incubation, read-out: IC50 against amastigotes of L. (L.) infantum) was 9.7 µM and the SI ([6]; selectivity index) was > 20.
